Measurements published in US20240254066A1, “RESCORCINOLS, METHODS FOR THEIR MANUFACTURE, AND USES THEREOF” (GW Research Limited, priority 2021, published 2024).

System: tonic hind limb extensor convulsions (mouse model of generalised seizure)
Test: mini-MEST (maximal electroshock seizure threshold) test in the mouse
Settings: for change in vivo at 5 mg/kg / change in vivo at 50 mg/kg / change in vivo at 25 mg/kg: Mus musculus, ip, change in CC50; for change in vivo at 5 mg/kg: 0.25 h, read-out: % change from vehicle, 5 mg/kg i.p., 15 min post dose; for change in vivo at 50 mg/kg / change in vivo at 25 mg/kg: 0.5 h; for change in vivo at 50 mg/kg: read-out: % change from vehicle, 50 mg/kg i.p., 30 min post dose; for change in vivo at 25 mg/kg: read-out: % change from vehicle, 25 mg/kg i.p., 30 min post dose
Method: The efficacy of novel resorcinols 2, 3, 5, 8, 10, 15, 16, 17, 18, 19, 41 45, 46, 53, 56 and 58 were tested in a novel mouse model of generalised seizure, the mini-MEST (maximal electroshock seizure threshold) test, which uses lower n numbers than typically used.
The maximal electroshock seizure threshold (MEST) test is widely utilized preclinically to evaluate pro- or anti-convulsant properties of test compounds (Loscher et al., 1991).
In the MEST test the ability of a drug to alter the seizure threshold current required to induce hind limb tonic extensor convulsions is measured according to an “up and down” method of shock titration (Kimball et al., 1957). An increase in seizure threshold is indicative of anti-convulsant effect.
The ability of a test compound to alter the stimulus intensity, expressed as current (mA), required to induce the presence of tonic hind limb extensor convulsions, is assessed in the MEST.
Naïve mice were acclimatised to the procedure room in their home cages for up to 7 days, with food and water available ad libitum.
All animals were weighed at the beginning of the study and randomly assigned to treatment groups based on a mean distribution of body weight across groups.
The first animal within a treatment group was given a shock at the expected or estimated CC50 current. For subsequent animals, the current was lowered or raised depending on the convulsions outcome from the preceding animal in log scale intervals.
Data generated from each treatment group were used to calculate the CC50±SEM values for the treatment group.
Vehicle: (5% ethanol, 10% solutol in 85% Saline) was prepared as follows: 1 mL of ethanol, 2 mL of solutol were warmed to 60° C., in 17 mL of saline (1:2:17).
The test compounds used were 2, 3, 5, 8, 10, 15, 16, 17, 18, 19, 41, 45, 46, 53, 56 and 58 Test compounds were administered at 5-50 mg/kg (i.p.) in a 1:2:17 ethanol:solutol:saline formulation.
Test compound effects were also calculated as percentage change in CC50 from the vehicle control group.
Significant difference between drug-treated animals and controls were assessed according to Litchfield and Wilcoxon (1949).

[1] = 5 mg/kg i.p., test 15 min post dose
[2] = 50 mg/kg i.p., test 30 min post dose
[3] = 25 mg/kg i.p., test 30 min post dose

Row | SMILES | CC50 +/− SEM [1] | CC50 +/− SEM [2] | change in vivo at 5 mg/kg [%] | change in vivo at 50 mg/kg [%] | CC50 +/− SEM [3] | change in vivo at 25 mg/kg [%]
1 | C=C(C)[C@@H]1C[C@H](O)C(C)=C[C@H]1c1c(O)cc(Cl)cc1O [Compound 2, (1′R,2′R,4′S)-4-Chloro-5′-methyl-2′-(prop-1-en-2-yl)-1′,2′,3′,4′-tetrahydro-[1,1′-biphenyl]-2,4′,6-triol] | 28.3 ± 1.1 mA | >114 mA | 7 | > 330 | – | –
2 | C=C(C)[C@@H]1C[C@H](OC)C(C)=C[C@H]1c1c(O)cc(CCC)cc1O [Compound 53, (1′R,2′R,4′S)-4′-Methoxy-5′-methyl-2′-(prop-1-en-2-yl)-4-propyl-1′,2″,3′,4′-tetrahydro-[1,1′-biphenyl]-2,6-diol] | – | – | – | – | 29.0 +/− 1.5 mA | 29
3 | C=C(C)[C@@H]1C[C@H](O)C(C)=C[C@H]1c1c(O)cc(Br)c(Cl)c1O [Compound 47, (1′R,2′R,4′S)-4-bromo-3-chloro-5′-methyl-2′-(prop-1-en-2-yl)-1″,2″,3′,4′-tetrahydro-[1,1′-biphenyl]-2,4′,6-triol] | – | – | – | – | 79.5 ± 10.0 mA | 238
4 | C=C(C)[C@@H]1C[C@H](O)C(C)=C[C@H]1c1c(O)c(C)c(-c2ccnc(OC)c2)c(C)c1O [Compound 52, (1′R,2′R,4′S)-4-(2-Methoxypyridin-4-yl)-3,5,5′-trimethyl-2′-(prop-1-en-2-yl)-1′,2′,3′,4′-tetrahydro-[1,1′-biphenyl]-2,4′,6-triol] | 31.0 ± 4.5 mA | 76.5 ± 2.6 mA | 9 | 170 | – | –
5 | C=C(C)[C@@H]1C[C@H](O)C(C)=C[C@H]1c1c(O)cc(CCC)c(F)c1O [Compound 45, (1′R,2′R,4′S)-3-fluoro-5′-methyl-2′-(prop-1-en-2-yl)-4-propyl-1′,2′,3′,4′-tetrahydro-[1,1′-biphenyl]-2,4′,6-triol] | 35.5 +/− 0.5 mA | – | 58 | – | – | –
6 | C=C(C)[C@@H]1C[C@H](O)C(C)=C[C@H]1c1c(O)cc(-c2ccccc2OC)cc1O [Compound 29, (1R,2R,4S)-2″-Methoxy-5-methyl-2-(prop-1-en-2-yl)-1,2,3,4-tetrahydro-[1,1′:4′,1″-terphenyl]-2″,4,6′-triol] | 35.0 ± 2.6 mA | 70.5 ± 1.3 mA | 32 | 166 | – | –
7 | C=C(C)[C@@H]1C[C@H](O)C(C)=C[C@H]1c1c(O)cc(-c2ccc(F)c(OC)c2)cc1O [Compound 30, (1R,2R,4S)-4″-Fluoro-3″-methoxy-5-methyl-2-(prop-1-en-2-yl)-1,2,3,4-tetrahydro-[1,1′:4′,1″-terphenyl]-2′,4,6′-triol] | 43.0 ± 1.9 mA | >131 mA | 62 | > 394 | – | –
8 | C=C(C)[C@@H]1C[C@H](O)C(C)=C[C@H]1c1c(O)cc(-c2ccnc(OC)c2)cc1O [Compound 16, (1′R,2′R,4′S)-4-(2-Methoxypyridin-4-yl)-5′-methyl-2′-(prop-1-en-2-yl)-1″,2′,3′,4′-tetrahydro-[1,1′-biphenyl]-2,4′,6-triol] | – | 70.5 +/− 1.3 mA | – | 213 | – | –
9 | C=C(C)[C@@H]1C[C@H](O)C(C)=C[C@H]1c1c(O)cc(C2CC2)cc1O [Compound 8, (1′R,2′R,4′S)-4-Cyclopropyl-5′-methyl-2′-(prop-1-en-2-yl)-1′,2′,3′,4′-tetrahydro-[1,1′-biphenyl]-2,4″,6-triol] | 24.5 ± 0.9 mA | 58.2 ± 2.0 mA | 9 | 159 | – | –
10 | C=C(C)[C@@H]1C[C@H](O)C(C)=C[C@H]1c1c(O)cc(-c2cccc3c2OCO3)cc1O [Compound 42, (1′R,2′R,4′S)-4-(Benzo[d][1,3]dioxol-4-yl)-5′-methyl-2′-(prop-1-en-2-yl)-1′,2′,3′,4′-tetrahydro-[1,1′-biphenyl]-2,4′,6-triol] | – | >131.0 mA | – | 457 | – | –
11 | C=C(C)[C@@H]1C[C@H](O)C(C)=C[C@H]1c1c(O)cc(CCOC)cc1O [Compound 5, (1′R,2′R,4′S)-4-(2-Methoxyethyl)-5′-methyl-2′-(prop-1-en-2-yl)-1″,2′,3′,4′-tetrahydro-[1,1′-biphenyl]-2,4′,6-triol] | 23.5 +/− 0.3 mA | 50.5 +/− 0.7 mA | 0 | 115 | – | –
12 | C=C(C)[C@@H]1C[C@H](O)C(C)=C[C@H]1c1c(O)cc(/C=C/C)cc1O [Compound 7, (1′R,2′R,4′S)-5′-Methyl-4-((E)-prop-1-en-1-yl)-2′-(prop-1-en-2-yl)-1′,2′,3′,4′-tetrahydro-[1,1′-biphenyl]-2,4′,6-triol] | 29.0 ± 1.5 mA | 75.0 ± 3.4 mA | -2 | 153 | – | –
13 | C=C(C)[C@@H]1C[C@H](O)C(C)=C[C@H]1c1c(O)cc(C2=CCOCC2)cc1O [Compound 26, (1′R,2′R,4′S)-4-(3,6-Dihydro-2H-pyran-4-yl)-5′-methyl-2′-(prop-1-en-2-yl)-1′,2″,3′,4′-tetrahydro-[1,1′-biphenyl]-2,4′,6-triol] | 31.0 ± 0.2 mA | 50.0 ± 2.6 mA | 24 | 100 | – | –
14 | C=C(C)[C@@H]1C[C@H](O)C(C)=C[C@H]1c1c(O)cc(-c2ccc3c(c2)OCO3)cc1O [Compound 41, (1′R,2′R,4′S)-4-(Benzo[d][1,3]dioxol-5-yl)-5′-methyl-2′-(prop-1-en-2-yl)-1′,2′,3′,4′-tetrahydro-[1,1′-biphenyl]-2,4′,6-triol] | 50.5 ± 0.7 mA | >131.0 mA | 91 | > 394 | – | –
15 | C=C(C)[C@@H]1C[C@H](O)C(C)=C[C@H]1c1c(O)cc(-c2ccc(OC(F)F)nc2)cc1O [Compound 19, (1′R,2′R,4′S)-4-(6-(Difluoromethoxy)pyridin-3-yl)-5′-methyl-2′-(prop-1-en-2-yl)-1′,2″,3′,4′-tetrahydro-[1,1′-biphenyl]-2,4′,6-triol] | 38.0 ± 1.9 mA | 97.5 ± 1.3 mA | 43 | 268 | – | –
16 | C=C(C)[C@@H]1C[C@H](O)C(C)=C[C@H]1c1c(O)cc(-c2cccc(OC)c2)c(Cl)c1O [Compound 49, (1R,2R,4S)-3′-Chloro-3″-methoxy-5-methyl-2-(prop-1-en-2-yl)-1,2,3,4-tetrahydro-[1,1′:4′,1″-terphenyl]-2′,4,6′-triol] | – | 97.5 ± 1.3 mA | – | 244 | – | –
17 | C=C(C)[C@@H]1C[C@H](O)C(C)=C[C@H]1c1c(O)cc(-c2cccc(OC(F)F)c2)cc1O [Compound 31, (1R,2R,4S)-3″-(Difluoromethoxy)-5-methyl-2-(prop-1-en-2-yl)-1,2,3,4-tetrahydro-[1,1′:4′,1″-terphenyl]-2′,4,6′-triol] | 33.0 ± 1.5 mA | 79.5 ± 1.3 mA | 25 | 200 | – | –
18 | C=C(C)[C@@H]1C[C@H](O)C(C)=C[C@H]1c1c(O)cc(-c2ccc(OC)cc2)cc1O [Compound 33, (1R,2R,4S)-4″-Methoxy-5-methyl-2-(prop-1-en-2-yl)-1,2,3,4-tetrahydro-[1,1′:4′,1″-terphenyl]-2′,4,6′-triol] | 38.8 ± 1.4 mA | 79.5 ± 0.9 mA | 47 | 200 | – | –
19 | C=C(C)[C@@H]1C[C@H](O)C(C)=C[C@H]1c1c(O)cc(-c2cccc(OC)c2)cc1O [Compound 15, (1R,2R,4S)-3″-Methoxy-5-methyl-2-(prop-1-en-2-yl)-1,2,3,4-tetrahydro-[1,1′:4′,1″-terphenyl]-2′,4,6′-triol] | – | >114 mA | – | > 407 | – | –
20 | C=C(C)[C@@H]1C[C@H](O)C(C)=C[C@H]1c1c(O)cc(CC)cc1O [Compound 3, (1″R,2′R,4′S)-4-Ethyl-5′-methyl-2″-(prop-1-en-2-yl)-1′,2″,3″,4′-tetrahydro-[1,1″-biphenyl]-2,4′,6-triol] | 44.2 +/− 1.4 mA | 59.2 +/− 1.4 mA | 77 | 137 | – | –
21 | C=C(C)[C@@H]1C[C@H](O)C(C)=C[C@H]1c1c(O)cc(CCC)c(Cl)c1O [Compound 46, (1′R,2′R,4′S)-3-chloro-5′-methyl-2′-(prop-1-en-2-yl)-4-propyl-1′,2′,3′,4′-tetrahydro-[1,1′-biphenyl]-2,4′,6-triol] | – | 84.0 ± 3.4 mA | – | 217 | – | –
